Tests used:
Test in all cases: CRE-luciferase
Assay type in all cases: cell-based
[1] = target: T1, Olfr376 (Mus musculus, UniProt Q8VGI2); settings: Hana3A cells, 4 h, 37°C; agonist
T1 sequence (Q8VGI2 1-317): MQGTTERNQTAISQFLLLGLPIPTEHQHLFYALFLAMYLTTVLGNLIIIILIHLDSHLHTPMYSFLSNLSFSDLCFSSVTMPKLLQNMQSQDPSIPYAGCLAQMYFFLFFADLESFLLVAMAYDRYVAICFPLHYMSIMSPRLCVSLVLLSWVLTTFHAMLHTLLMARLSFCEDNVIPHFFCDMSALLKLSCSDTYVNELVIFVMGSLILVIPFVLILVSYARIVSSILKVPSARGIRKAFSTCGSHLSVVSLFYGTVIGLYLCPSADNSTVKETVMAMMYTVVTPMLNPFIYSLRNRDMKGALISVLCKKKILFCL

[2] = target: T2, Olfr20 (Mus musculus, UniProt Q7TRX9); settings: Hana3A cells, 4 h, 37°C; agonist
T2 sequence (Q7TRX9 1-314): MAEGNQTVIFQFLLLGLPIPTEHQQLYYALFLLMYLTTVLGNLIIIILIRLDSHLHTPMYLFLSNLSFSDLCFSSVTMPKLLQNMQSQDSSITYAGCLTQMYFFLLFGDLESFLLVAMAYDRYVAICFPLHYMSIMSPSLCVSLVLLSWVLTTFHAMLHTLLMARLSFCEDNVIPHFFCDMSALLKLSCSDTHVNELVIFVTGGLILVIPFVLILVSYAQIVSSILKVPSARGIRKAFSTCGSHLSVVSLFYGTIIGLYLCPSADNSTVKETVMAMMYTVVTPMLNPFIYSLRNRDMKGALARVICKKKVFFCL

[3] = target: T3, Olfr491 (Mus musculus, UniProt Q8VG06); settings: Hana3A cells, 4 h, 37°C; agonist
T3 sequence (Q8VG06 1-310): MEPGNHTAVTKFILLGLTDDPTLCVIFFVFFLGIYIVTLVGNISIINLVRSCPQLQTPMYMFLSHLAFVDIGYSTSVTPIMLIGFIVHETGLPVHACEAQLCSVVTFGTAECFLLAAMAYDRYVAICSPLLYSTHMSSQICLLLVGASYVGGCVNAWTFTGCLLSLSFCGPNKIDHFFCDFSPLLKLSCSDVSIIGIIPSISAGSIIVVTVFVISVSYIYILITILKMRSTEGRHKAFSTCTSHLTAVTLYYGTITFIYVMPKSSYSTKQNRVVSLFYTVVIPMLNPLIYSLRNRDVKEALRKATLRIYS

[4] = target: T4, Olfr57 (Mus musculus, UniProt Q8VGU7); settings: Hana3A cells, 4 h, 37°C; agonist
T4 sequence (Q8VGU7 1-319): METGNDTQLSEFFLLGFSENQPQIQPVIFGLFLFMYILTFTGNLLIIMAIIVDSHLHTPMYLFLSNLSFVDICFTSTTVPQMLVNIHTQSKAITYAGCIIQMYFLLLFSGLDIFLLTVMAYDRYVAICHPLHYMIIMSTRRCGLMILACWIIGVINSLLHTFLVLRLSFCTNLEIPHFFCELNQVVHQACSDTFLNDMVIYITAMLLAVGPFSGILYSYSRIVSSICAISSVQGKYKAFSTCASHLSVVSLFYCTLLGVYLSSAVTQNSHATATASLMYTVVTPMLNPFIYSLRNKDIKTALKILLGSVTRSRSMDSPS

[5] = target: T5, Olfr19 (Mus musculus, UniProt Q9JHB2); settings: Hana3A cells, 10^–9 – 10^–3 M, 4 h, 37°C; agonist
T5 sequence (Q9JHB2 1-309): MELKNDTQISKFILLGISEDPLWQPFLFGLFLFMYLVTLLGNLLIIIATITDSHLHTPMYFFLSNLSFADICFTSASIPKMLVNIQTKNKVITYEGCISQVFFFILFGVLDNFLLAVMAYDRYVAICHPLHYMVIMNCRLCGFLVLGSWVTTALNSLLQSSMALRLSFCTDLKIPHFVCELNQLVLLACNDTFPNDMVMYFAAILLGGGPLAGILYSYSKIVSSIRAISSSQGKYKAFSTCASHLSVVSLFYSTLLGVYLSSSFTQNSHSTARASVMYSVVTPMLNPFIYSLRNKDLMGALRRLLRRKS

Compound	CRE-luciferase (Dual-Glo) reporter [1]	CRE-luciferase (Dual-Glo) reporter [2]	CRE-luciferase (Dual-Glo) reporter [3]	CRE-luciferase (Dual-Glo) reporter [4]	EC50 [5]
CC1=NC(C)SC1C (centres unmarked) [2,5–dihydro–2,4,5–trimethylthiazoline]	Five of these TMT ORs (Olfr20, Olfr30, Olfr57, Olfr376, Olfr491)	Five of these TMT ORs (Olfr20, Olfr30, Olfr57, Olfr376, Olfr491)	Five of these TMT ORs (Olfr20, Olfr30, Olfr57, Olfr376, Olfr491)	Five of these TMT ORs (Olfr20, Olfr30, Olfr57, Olfr376, Olfr491)	–
CC(=O)c1ccccc1 [acetophenone]	–	–	–	–	a newly identified acetophenone OR, Olfr19

Source: paper PMC4583814 (Nature neuroscience, 2015)
